Laboratory results taken from patent US20240150755A1, “MODULATING REGULATORY T CELL FUNCTION IN AUTOIMMUNE DISEASE AND CANCER” (Salk Institute for Biological Studies, priority 2021, published 2024).

What was measured:
[1] = tested on: Treg cells; assay: In vitro Treg suppression assay; format: cell-based, mouse; conditions: sgRNA transduced Treg cells plus MIGR-Foxp3
From the text: Treg cells were transduced by retrovirus expressing sgRNA targeting gene of interest and cultured in X-VIVO® complete media supplemented with IL-2 (500 U/ml). Four days after transduction, transduced cells were […] a fluorescence-activated cell sorter (FACS). CD45.1+ naive CD4 T cells (CD4^+CD25^−CD44^loCD62^hi) were labeled with CellTrace™ Violet (Thermo Fisher Scientific #C34571) in different ratio in the presence of irradiated T cell depleted spleen cells as antigen-presenting cells (APC). Three days later, Treg suppression function was measured by the percentage of non-dividing cells within the CD45.1^+ effector T cell population. For dBRD9 treatment experiment, dBRD9 was first dissolved in DMSO (10 mM stock) and added into Treg:Teff:APC mixture at 2.5 μM. For Foxp3 overexpression rescue experiment, Treg cells were first transduced with sgNT or sgBrd9 at 24 hour post-activation, and then transduced with MIGR empty vector or MIGR-Foxp3 at 48 hour post-activation. Double transduced Treg cells were FACS sorted on day 4 based on NGFR+ and GFP+ markers and then mixed with CellTrace™ labeled effector T cells in the presence of APC. Treg suppression readout was measured after three days of co-culture.

[2] = tested on: Rag1^−/− mice; assay: Adoptive T cell transfer-induced colitis model; format: in vivo, mouse
From the text: Treg cells were transduced by retrovirus expressing sgRNA targeting gene of interest, and cultured in X-VIVO® complete media and IL-2 (500 U/ml). Four days after transduction, the NGFR^+ transduced Treg cells were FACS sorted before transferred into recipient mice. To induce colitis, 2 million effector T cells (CD45.1^+CD4^+CD25^−CD45RB^hi) and 1 million sgRNA transduced Treg cells (CD45.2^+ CD4^+ Thy1.1^+ NGFR^+) were mixed together and transferred into Rag1^−/− recipient mice. The body weight of recipient mice was monitored weekly for signs of wasting symptoms. Mice were harvested 7 weeks after T cell transfer. Spleens were used for profiling immune cell populations by FACS. Colons were collected for histopathological analysis.
Histopathological analysis was performed in a blinded manner and scored using the following criteria: eight parameters were used, including (i) the degree of inflammatory infiltrate in the LP (0-3); (ii) Goblet cell loss (0-2); (iii) reactive epithelial hyperplasia/atypia with nuclear changes (0-3); (iv) the number of IELs in the epithelial crypts (0-3); (v) abnormal crypt architecture (distortion, branching, atrophy, crypt loss) (0-3); (vi) number of crypt abscesses (0-2); (vii) mucosal erosion to frank ulcerations (0-2) and (viii) submucosal spread to transmural involvement (0-2). The severity of lesion was scored independently in 3 regions (proximal, middle and distal colon) over a maximal score of 20. The overall colitis score was based as the average of each regional score (maximal score of 20).

[3] = tested on: Foxp3 target genes; assay: RNA-seq and gene set enrichment analysis in Treg cells; format: cell-based, mouse
From the text: For large scale Treg culture, Tregs were first expanded in Rosa-Cas9/Foxp3^Thy1.1 mice by injecting IL-2:IL-2 antibody immune complex according protocol described in Webster et. al (J Exp Med 206, 751-760, 2009). Spleen and lymph node Treg cells were labeled with PE-conjugated Thy1.1 antibody and isolated by magnetic selection using anti-PE microbeads (Mitenyl #130-048-801). All isolated Treg cells were activated by plate bound anti-CD3 and anti-CD28 antibodies and cultured with X-VIVO® 20 media (LONZA #04-448Q) supplemented by 1× Pen/Strep, 1× Sodium pyruvate, 1× HEPES, 1× GlutaMax™, 55 μM beta-mercaptoethanol in the presence of IL-2 at 500 units/mL. For experiments with Brd9 degradation, Treg cells were treated at day 0 with 2.5 μM dBRD9 (Tocris #6606) and cultured for four days for RNA- and ChIP-seq and 0.16-10 μM treated at day 0 and cultured dBRD9 for four days for Foxp3 MFI, cell viability and cell proliferation assays. Live cells were enriched by Ficoll-Paque® 1.084 (GE Health 17-5446-02) for RNA-seq and ChIP-seq.
RNA from 1-3×10^6 cells was extracted and purified with TRIzol™ reagent (Thermo Fisher) according to manufacturer's instructions. RNA-seq libraries were prepared using Illumina® TruSeq® Stranded mRNA kit following manufacturer's instructions with 5 μg of input RNA.
Single-end 50 bp reads were aligned to the mouse genome mm10 using STAR alignment tool (V2.5) (Dobin et al., Bioinformatics 29:15-21, 2013). RNA expression was quantified as raw integer counts using analyzeRepeats.pl in HOMER (Heinz et al., Mol Cell 38:576-589, 2010) using the following parameters: -strand both -count exons -condenseGenes -noadj. To identify differentially expressed genes, getDiffExpression.pl in HOMER was used, which uses the DESeq2R package to calculate the biological variation within replicates. Cut-offs were set at log 2 FC=0.585 and FDR at 0.05 (Benjamin-Hochberg). Principal Component Analysis (PCA) was performed with the mean of transcript per million (TPM) values using Cluster 3.0 with the following filter parameters: at least one observation with absolute value equal or greater than two and gene vector of four. TPM values were log transformed then centered on the mean.
GSEA software (Mootha et al., Nat Genet 34:267-273, 2003; Subramanian et al., PNAS 102:15545-15550, 2005) was used to perform the analyses with the following parameters: number of permutations=1000; enrichment statistic=weighted; and metric for ranking of genes=difference of classes (Input RNA-seq data was log-transformed). For GSEA analysis, input RNA-seq data contained the normalized log-transformed reads of the 1,325 differentially expressed genes (DEGs) in sgFoxp3/sgNT Treg cells. The compiled gene list included GSEA Gene Ontology, Immunological Signature, Curated Gene, and the up and down DEGs in sgBrd9/sgNT Treg cells.
For gene expression analysis in FIG. 42F, Foxp3 ChIP-seq tags were quantified at the union of sites bound by Foxp3 in sgNT and sgBrd9 using the annotatePeaks.pl command in HOMER with size-given and each site was annotated to a gene by mapping to the nearest TSS. Sites were ranked from least to largest Foxp3 ChIP-seq Log2FC in sgBrd9 vs sgNT and divided into quartiles. Gene expression for the genes in the top and bottom quartiles (Brd9-dependent and -independent, respectively) was then plotted using RNA-seq data from Treg cells transduced with sgBrd9, sgSmarcd1, or sgPbrm1 compared to sgNT. […]

sgBrd9: sgRNA targeting Brd9, ATTAACCGGTTTCTCCCGGG (SEQ ID NO: 12) (expressed or natural sequence)
Treg suppressor activity with ectopic expression of Foxp3 [1]: partially restored Treg suppressor activity to a level comparable to sgNT controls
protection of recipient mice from body weight loss ([2]; co-transfer of Teff and sgRNA transduced Treg cells into Rag1^−/− mice): failed to protect recipients from losing weight
Foxp3^+ cell frequencies within the CD45.2^+CD4^+ transferred Treg population ([2]; end point of colitis model): reduced Foxp3^+ cell frequencies
colitis pathology ([2]; seven weeks after transfer, vs control Treg cells): significant colitis pathology
enrichment of increased/decreased genes among sgFoxp3 regulated genes (GSEA) ([3]; sgBrd9/sgNT vs sgFoxp3/sgNT Treg cells): significantly enriched among genes that increase upon sgFoxp3 targeting
gene expression of Brd9-dependent vs Brd9-independent Foxp3 target genes ([3]; sgRNA transduced Treg cells vs sgNT): significantly more affected
